Data from US7919101B2 (priority 2008, dated 2011).
Read-outs that look alike come from different tables or passages of the source. Residues, ends and D or L forms follow the SMILES beside them.

Legend:
[1] = tested on: HIV-1 RU570 (clade G, R5); assay: Inhibition of infection by primary HIV-1 isolate RU570; type: cell-based
Description: Inhibitory activity of fusion/entry inhibitors on infection by a primary HIV-1 isolate was determined as previously described (Jiang S et al. Antimicrob Agents Chemother 48:4349-4359, 2004). Peripheral blood mononuclear cells (PBMCs) were isolated from the blood of healthy donors by standard density gradient centrifugation using Histopaque-1077 (Sigma). The cells were plated in 75 cm^2 plastic flasks and incubated at 37° C. for 2 hrs. The nonadherent cells were collected and resuspended at 5×10^6 in 10 ml RPMI-1640 medium containing 10% FBS, 5 μg/ml PHA (phytohemagglutinin) and 100 U/ml IL-2 (Sigma), followed by incubation at 37° C. for 3 days. The PHA-stimulated cells were infected with a primary HIV-1 isolates at 0.01 MOI in the absence or presence of a compound at graded concentrations. Culture media were changed every 3 days. The supernatants were collected 7 days post-infection and tested for p24 antigen by ELISA as described above. The percent inhibition of p24 production and EC50 values were calculated as described above.
(§1) 4. Synergy analysis. […] In all analyses, HIV fusion/entry inhibitors were assumed to act noncompetitively, which led to a more conservative estimate of synergy. CI values<1 and >1 indicate synergy and antagonism, respectively. Dose reductions were calculated as the compound concentrations required for inhibition of HIV-1 replication when the compound was used alone and in combination. The statistic analysis was performed by the One-Way Analysis of Variance (One-Way ANOVA) method using Origin 6.1 software.

[2] = tested on: HIV-1 NL4-3(36G)V38A/N42D
Description: (§2) 2. Inhibition of HIV infection as measured by luciferase assay. The inhibitory activity of fusion/entry inhibitors on HIV infection in TZM-bl cells was determined by using a luciferase assay (Wei X et al. Antimicrob. Agents Chemother. 46:1896-1905, 2002). Briefly, 50 μl of a compound at graded concentration in triplicate were incubated with an equal volume of an HIV-1 isolate at 0.01 multiplicity of infection (MOI) at 37° C. for 30 min, followed by addition of the mixture to 100 μl TZM-bl cells (1×10^5/ml) that were pre-cultured in a 96-well plate at 37° C. overnight. After further culture at 37° C. for 3 days, the cells were harvested and lyzed with 50 μl lysing reagent. The luciferase activity was analyzed using a luciferase kit (Promega Corp.) and a luminometer (Model: Ultra […], Tecan) according to the manufacture's instruction. The percent inhibition of cell fusion by a compound as well as EC50 and EC90 values were calculated using the software CalcuSyn.
(§3) 3. Inhibition of HIV replication as measured by p24 antigen production. The inhibitory activity of fusion/entry inhibitors on HIV-1 infection as measured by p24 antigen production was determined as previously described (Zhao Q et al. AIDS Res Hum Retroviruses 18:989-997, 2002). In brief, 1×10^4 MT-2 cells were infected with an HIV-1 strain (100 TCID50) in 200 μl RPMI 1640 medium containing 10% FBS in the presence or absence of testing compounds at graded concentrations overnight. Then the culture supernatants were removed and fresh media containing no testing compounds were added. On the fourth day post-infection, 100 μl of culture supernatants were collected from each well, mixed with equal volumes of 5% Triton X-100 and assayed for p24 antigen, which was quantitated by ELISA. Briefly, wells of polystyrene plates were coated with HIV immunoglobulin (HIVIG, prepared from plasma of HIV-seropositive donors with high neutralizing titers against HIV-1IIIB), in 0.085 M carbonate-bicarbonate buffer (pH 9.6) at 4° C. overnight, followed by washes with washing buffer (0.01 M PBS containing 0.05% Tween-20) and blocking with PBS containing 1% dry fat-free milk. Virus lysates were added to the wells and incubated at 37° C. for 1 hr. […] Reactions were terminated by addition of 1N H2SO4. Absorbance at 450 nm was recorded in an ELISA reader (Ultra 384, TECAN). Recombinant protein p24, purchased from US Biological, was included for establishing standard dose response curves. Each sample was tested in triplicate. The percentage of inhibition of p24 production was calculated as previously described (Neurath A R et al. BMC Infect Dis 2:6, 2002).
as §1

[3] = tested on: HIV-1 BaL (subtype B, R5)
Description: as §2, §3, §1

[4] = tested on: HIV-1 IIIB (subtype B, X4)
Description: as §2, §3, §1

[5] = tested on: HIV-1 NL4-3(36G)V38E/N42S
Description: as §2, §3, §1

HIV-1 NL4-3(36G)V38A = tested on: HIV-1 NL4-3(36G)V38A
Description: as §2, §3, §1

[6] = RU570 (G, R5) primary isolate, peptide alone, read-out: EC50 alone
[7] = RU570, T-20+T-1249+T-1144 4:1:1
[8] = RU570, T-20 combined with T-1144
[9] = read-out: EC50 alone, peptide alone
[10] = read-out: EC50 in mixture, T-20+T-1249+T-1144 80:1:1
[11] = read-out: EC50 in mixture, T-20 combined with T-1144, ratios 80:1:1
[12] = read-out: EC50 in mixture, T-20 combined with T-1249, ratios 80:1:1
[13] = read-out: EC50 alone, Bal (B, R5), peptide alone
[14] = IIIB, T-20+T-1249+T-1144 16:4:1
[15] = IIIB, T-20 combined with T-1144
[16] = read-out: EC50 alone, IIIB (B, X4), peptide alone

enfuvirtide
EC50 [1, 6]: 38.4 nM
Dose reduction [1, 7]: 8.47 fold
EC50 ([1]; RU570, T-20+T-1249+T-1144 4:1:1, read-out: EC50 in mixture): 4.54 nM
Dose reduction [1, 8]: 7.41 fold
EC50 ([1]; RU570, T-20 combined with T-1144, ratios 4:1:1, read-out: EC50 in mixture): 5.19 nM
EC50 ([1]; RU570, T-20 combined with T-1249, ratios 4:1:1, read-out: EC50 in mixture): 5.98 nM
Dose reduction ([2]; T-20+T-1249+T-1144 80:1:1): 67.90 fold
Dose reduction ([2]; T-20 combined with T-1144): 13.17 fold
Dose reduction ([2]; T-20 combined with T-1249): 11.56 fold
EC50 [2, 9]: 2650 nM
EC50 [2, 10]: 39 nM
EC50 [2, 11]: 201 nM
EC50 [2, 12]: 229 nM
Dose reduction ([3]; Bal, T-20+T-1249+T-1144 2:1:1): 280.67 fold
Dose reduction ([3]; Bal, T-20 combined with T-1144): 20.05 fold
Dose reduction ([3]; Bal, T-20 combined with T-1249): 11.53 fold
EC50 [3, 13]: 8.42 nM
EC50 ([3]; read-out: EC50 in mixture, Bal, T-20+T-1249+T-1144 2:1:1): 0.03 nM
EC50 ([3]; read-out: EC50 in mixture, Bal, T-20 combined with T-1144, ratios 2:1:1): 0.42 nM
EC50 ([3]; read-out: EC50 in mixture, Bal, T-20 combined with T-1249, ratios 2:1:1): 0.73 nM
Dose reduction [4, 14]: 71.04 fold
Dose reduction [4, 15]: 5.11 fold
Dose reduction ([4]; IIIB, T-20 combined with T-1249): 3.32 fold
EC50 [4, 16]: 50.4 nM
EC50 ([4]; read-out: EC50 in mixture, IIIB, T-20+T-1249+T-1144 16:4:1): 0.71 nM
EC50 ([4]; read-out: EC50 in mixture, IIIB, T-20 combined with T-1144, ratios 16:4:1): 9.88 nM
EC50 ([4]; read-out: EC50 in mixture, IIIB, T-20 combined with T-1249, ratios 16:4:1): 15.2 nM
Dose reduction ([5]; T-20+T-1249+T-1144 3000:200:1): 24.12 fold
Dose reduction ([5]; T-20 combined with T-1144): 2.64 fold
Dose reduction ([5]; T-20 combined with T-1249): 13.51 fold
EC50 [5, 9]: 9890 nM
EC50 ([5]; read-out: EC50 in mixture, T-20+T-1249+T-1144 3000:200:1): 410 nM
EC50 ([5]; read-out: EC50 in mixture, T-20 combined with T-1144, ratios 3000:200:1): 3750 nM
EC50 ([5]; read-out: EC50 in mixture, T-20 combined with T-1249, ratios 3000:200:1): 733 nM
Dose reduction (HIV-1 NL4-3(36G)V38A; T-20+T-1249+T-1144 80:1:1): 37.76 fold
Dose reduction (HIV-1 NL4-3(36G)V38A; T-20 combined with T-1144): 16.78 fold
Dose reduction (HIV-1 NL4-3(36G)V38A; T-20 combined with T-1249): 23.03 fold
EC50 (HIV-1 NL4-3(36G)V38A; [9]): 313 nM
EC50 (HIV-1 NL4-3(36G)V38A; [10]): 8.29 nM
EC50 (HIV-1 NL4-3(36G)V38A; [11]): 18.6 nM
EC50 (HIV-1 NL4-3(36G)V38A; [12]): 13.6 nM

CC[C@H](C)[C@H](NC(=O)[C@H](C)NC(=O)[C@H](CCCNC(=N)N)NC(=O)[C@H](CC(=O)O)NC(=O)[C@H](Cc1c[nH]c2ccccc12)NC(=O)[C@H](C)NC(=O)[C@H](CCC(=O)O)NC(=O)[C@H](Cc1c[nH]c2ccccc12)NC(=O)[C@@H](NC(=O)[C@@H](NC(C)=O)[C@@H](C)O)[C@@H](C)O)C(=O)N[C@@H](C)C(=O)N[C@@H](CCC(=O)O)C(=O)N[C@@H](Cc1ccc(O)cc1)C(=O)N[C@@H](C)C(=O)N[C@@H](C)C(=O)N[C@@H](CCCNC(=N)N)C(=O)N[C@H](C(=O)N[C@@H](CCC(=O)O)C(=O)N[C@@H](C)C(=O)N[C@@H](CC(C)C)C(=O)N[C@@H](CC(C)C)C(=O)N[C@@H](CCCNC(=N)N)C(=O)N[C@@H](C)C(=O)N[C@@H](CC(C)C)C(=O)N[C@@H](CCC(N)=O)C(=O)N[C@@H](CCC(=O)O)C(=O)N[C@@H](CCC(N)=O)C(=O)N[C@@H](CCC(N)=O)C(=O)N[C@@H](CCC(=O)O)C(=O)N[C@@H](CCCCN)C(=O)N[C@@H](CC(N)=O)C(=O)N[C@@H](CCC(=O)O)C(=O)N[C@@H](C)C(=O)N[C@@H](C)C(=O)N[C@@H](CC(C)C)C(=O)N[C@@H](CCCNC(=N)N)C(=O)N[C@@H](CCC(=O)O)C(=O)N[C@@H](CC(C)C)C(N)=O)[C@@H](C)CC [T-1144] (Ac-TTWEAWDRAIAEYAARIEALLRALQEQQEKNEAALREL-NH2; N-terminus and C-terminus assumed)
EC50 [1, 6]: 24.2 nM
Dose reduction [1, 7]: 21.23 fold
Dose reduction [1, 8]: 18.62 fold
Dose reduction ([2]; T-20+T-1249+T-1144 80:1:1): 9.33 fold
Dose reduction ([2]; T-20 combined with T-1144): 1.82 fold
EC50 [2, 9]: 4.57 nM
Dose reduction ([3]; Bal, T-20+T-1249+T-1144 2:1:1): 209.00 fold
Dose reduction ([3]; Bal, T-20 combined with T-1144): 19.90 fold
EC50 [3, 13]: 4.18 nM
Dose reduction [4, 14]: 99.00 fold
Dose reduction [4, 15]: 7.98 fold
EC50 [4, 16]: 4.95 nM
Dose reduction ([5]; T-20+T-1249+T-1144 3000:200:1): 37.21 fold
Dose reduction ([5]; T-20 combined with T-1144): 4.17 fold
EC50 [5, 9]: 5.21 nM
Dose reduction (HIV-1 NL4-3(36G)V38A; T-20+T-1249+T-1144 80:1:1): 37.60 fold
Dose reduction (HIV-1 NL4-3(36G)V38A; T-20 combined with T-1144): 16.35 fold
EC50 (HIV-1 NL4-3(36G)V38A; [9]): 3.76 nM
